Laboratory results: patent US8871753B2, “Macrocyclic compounds and their use as kinase inhibitors” (Incyte Corporation, priority 2008, dated 2014)
Counter-ions that a name gives are not always drawn. Like-named read-outs stand apart in the source and are kept apart here.

Columns and labels:
Format in all cases: biochemical
[1] = biological target: T1, human JAK2 (a.a. 828-1132) (Homo sapiens, UniProt O60674); assay: In vitro JAK kinase assay (HTRF, phosphorylation of a biotinylated peptide), JAK2
T1 construct: JAK2 (a.a. 828-1132); His tag (N); made in house; host or cells: insect cells (baculovirus)
Procedure, shortened: (§1)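 Kinase reactions ran at room temperature for 1 h with ATP matched per isoform (JAK1 90 μM, JAK2 30 μM, JAK3 3 μM). After an EDTA stop, the phosphorylated biotin-peptide was read by HTRF using Eu-Py20 and SA-APC after 40 min binding.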

[2] = biological target: T2, human JAK1 (a.a. 837-1142) (Homo sapiens, UniProt P23458); assay: In vitro JAK kinase assay (HTRF, phosphorylation of a biotinylated peptide), JAK1; settings: read-out: JAK1 IC50
T2 construct: human JAK1 (a.a. 837-1142); His tag (N); made in house; host or cells: insect cells (baculovirus)
Procedure, shortened: as §1

[3] = biological target: T3, human JAK3 (a.a. 781-1124) (Homo sapiens, UniProt P52333); assay: In vitro JAK kinase assay (HTRF, phosphorylation of a biotinylated peptide), JAK3
T3 construct: JAK3 (a.a. 781-1124); His tag (N); made in house; host or cells: insect cells (baculovirus)
Procedure, shortened: as §1

[4] = biological target: TYK2 (Homo sapiens, UniProt P29597); assay: TYK2 kinase inhibition (Table A1)
Chain of TYK2 (P29597 whole entry): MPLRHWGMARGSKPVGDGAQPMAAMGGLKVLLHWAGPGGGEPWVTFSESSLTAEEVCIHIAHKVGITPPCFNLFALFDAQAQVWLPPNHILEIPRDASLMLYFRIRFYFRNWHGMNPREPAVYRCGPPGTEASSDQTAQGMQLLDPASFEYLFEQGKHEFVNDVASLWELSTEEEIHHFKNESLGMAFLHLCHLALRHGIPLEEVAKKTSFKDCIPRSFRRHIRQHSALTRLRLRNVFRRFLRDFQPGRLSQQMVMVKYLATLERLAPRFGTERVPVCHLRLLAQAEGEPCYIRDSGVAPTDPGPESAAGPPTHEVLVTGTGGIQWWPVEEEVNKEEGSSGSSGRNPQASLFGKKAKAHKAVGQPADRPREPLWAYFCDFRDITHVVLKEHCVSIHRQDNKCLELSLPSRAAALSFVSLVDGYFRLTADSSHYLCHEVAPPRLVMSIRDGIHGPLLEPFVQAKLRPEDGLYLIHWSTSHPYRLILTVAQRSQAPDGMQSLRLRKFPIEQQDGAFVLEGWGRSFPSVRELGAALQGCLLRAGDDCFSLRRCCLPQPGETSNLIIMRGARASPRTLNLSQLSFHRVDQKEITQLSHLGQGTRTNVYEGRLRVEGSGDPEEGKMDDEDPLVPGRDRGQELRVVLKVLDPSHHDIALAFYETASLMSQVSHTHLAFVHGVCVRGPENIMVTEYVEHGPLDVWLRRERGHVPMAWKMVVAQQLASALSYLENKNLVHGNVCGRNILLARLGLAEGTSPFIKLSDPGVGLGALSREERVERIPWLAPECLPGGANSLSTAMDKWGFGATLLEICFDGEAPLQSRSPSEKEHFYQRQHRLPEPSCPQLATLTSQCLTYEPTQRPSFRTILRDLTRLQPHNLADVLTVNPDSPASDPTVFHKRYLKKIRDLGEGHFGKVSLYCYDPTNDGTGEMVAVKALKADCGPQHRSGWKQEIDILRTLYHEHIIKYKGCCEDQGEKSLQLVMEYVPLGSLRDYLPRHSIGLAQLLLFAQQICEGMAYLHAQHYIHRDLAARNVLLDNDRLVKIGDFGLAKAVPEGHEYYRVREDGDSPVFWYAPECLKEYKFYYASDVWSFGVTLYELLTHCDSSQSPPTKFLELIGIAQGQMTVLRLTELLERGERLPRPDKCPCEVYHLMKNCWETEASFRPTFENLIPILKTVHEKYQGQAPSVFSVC

T1 sequence (O60674 828-1132): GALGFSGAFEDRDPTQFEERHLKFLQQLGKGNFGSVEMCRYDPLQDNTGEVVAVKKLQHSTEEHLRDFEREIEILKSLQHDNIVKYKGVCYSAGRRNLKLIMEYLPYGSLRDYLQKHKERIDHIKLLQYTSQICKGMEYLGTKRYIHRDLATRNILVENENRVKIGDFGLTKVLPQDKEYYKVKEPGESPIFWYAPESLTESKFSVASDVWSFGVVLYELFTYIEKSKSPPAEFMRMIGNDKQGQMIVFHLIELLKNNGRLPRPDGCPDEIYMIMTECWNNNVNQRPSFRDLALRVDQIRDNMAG
T3 sequence (P52333 781-1124): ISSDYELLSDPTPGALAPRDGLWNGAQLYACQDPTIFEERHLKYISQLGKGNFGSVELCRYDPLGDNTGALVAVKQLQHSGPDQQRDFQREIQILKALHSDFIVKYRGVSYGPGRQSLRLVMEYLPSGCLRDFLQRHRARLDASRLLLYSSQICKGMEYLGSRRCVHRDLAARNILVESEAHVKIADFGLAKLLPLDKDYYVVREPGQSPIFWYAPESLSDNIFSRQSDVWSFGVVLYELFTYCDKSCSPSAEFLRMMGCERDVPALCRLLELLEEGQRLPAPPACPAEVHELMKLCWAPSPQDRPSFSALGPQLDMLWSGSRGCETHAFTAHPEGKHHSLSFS
T2 sequence (P23458 849-1154): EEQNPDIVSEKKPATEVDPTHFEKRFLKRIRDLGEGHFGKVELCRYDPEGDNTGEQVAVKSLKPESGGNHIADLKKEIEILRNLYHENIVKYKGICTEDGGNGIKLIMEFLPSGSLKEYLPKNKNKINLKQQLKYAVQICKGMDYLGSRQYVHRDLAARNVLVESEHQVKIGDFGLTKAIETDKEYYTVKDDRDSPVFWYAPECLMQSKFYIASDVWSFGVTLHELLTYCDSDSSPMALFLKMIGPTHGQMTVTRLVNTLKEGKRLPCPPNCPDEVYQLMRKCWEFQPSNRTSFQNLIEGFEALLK

Row | IC50 ([1]; Table D1) [µM] | IC50 ([2]; Table D1) [µM] | IC50 ([3]; Table D1) [µM] | IC50 ([4]; Table D1) [µM] | IC50 [1] [µM] | IC50 [2] [µM] | IC50 [3] [µM] | IC50 [4] [µM] | SMILES
1 | 0.106 | 0.009 | > 1 | 0.262 |  |  |  |  | O=C(CC1CN(c2nc3cccnc3o2)C1)Nc1ccc2cc1CCc1cncc(c1)Nc1ncc(Cl)c(n1)N2 [Example D141, N-[6-Chloro-2,4,8,18,22-pentaazatetracyclo[14.3.1.1(3,7).1(9,13)]docosa-1(20),3(22),4,6,9(21),10,12,16,18-nonaen-12-yl]-2-(1-[1,3]oxazolo[5,4-b]pyridin-2-ylazetidin-3-yl)acetamide tris(trifluoroacetate)]
2 | 0.015 | 0.018 | 0.064 | 0.082 |  |  |  |  | Cc1cc(C(=O)N2CCC[C@@H](CC(=O)Nc3ccc4cc3CCc3cncc(c3)Nc3ncc(Cl)c(n3)N4)C2)no1 [Example D208, N-[6-Chloro-2,4,8,18,22-pentaazatetracyclo[14.3.1.1(3,7).1(9,13)]docosa-1(20),3(22),4,6,9(21),10,12,16,18-nonaen-12-yl]-2-{(3S)-1-[(5-methylisoxazol-3-yl)carbonyl]piperidin-3-yl}acetamide bis(trifluoroacetate)]
3 | 0.18 | 0.08 | > 0.4 | > 0.4 |  |  |  |  | CCS(=O)(=O)N1CCN(C(=O)COc2ccc3cc2CCc2cncc(c2)Nc2ncc(Cl)c(n2)N3)CC1 [Example D263, 6-Chloro-12-{2-[4-(ethylsulfonyl)piperazin-1-yl]-2-oxoethoxy}-2,4,8,18,22-pentaazatetracyclo[14.3.1.1(3,7).1(9,13)]docosa-1(20),3(22),4,6,9(21),10,12,16,18-nonaene bis(trifluoroacetate)]
4 | 0.172 | 0.032 | > 1 | 0.26 |  |  |  |  | O=C(CC1CN(C(=O)c2ccno2)C1)Nc1ccc2cc1CCc1cncc(c1)Nc1ncc(Cl)c(n1)N2 [Example D144, N-[6-Chloro-2,4,8,18,22-pentaazatetracyclo[14.3.1.1(3,7).1(9,13)]docosa-1(20),3(22),4,6,9(21),10,12,16,18-nonaen-12-yl]-2-[1-(isoxazol-5-ylcarbonyl)azetidin-3-yl]acetamide bis(trifluoroacetate)]
5 | 0.015 | 0.025 | 0.087 | 0.106 |  |  |  |  | N#Cc1ccc(C(=O)N2CCN(c3ccc4cc3CCc3cccc(c3)Nc3ncc(Cl)c(n3)N4)CC2)cc1 [Example D95, 4-({4-[6-Chloro-2,4,8,22-tetraazatetracyclo[14.3.1.1(3,7).1(9,13)]docosa-1(20),3(22),4,6,9(21),10,12,16,18-nonaen-12-yl]piperazin-1-yl}carbonyl)benzonitrile bis(trifluoroacetate)]
6 | 0.095 | 0.021 | > 0.4 | 0.265 |  |  |  |  | O=C(CC1CN(c2nccs2)C1)Nc1ccc2cc1CCc1cncc(c1)Nc1ncc(Cl)c(n1)N2 [Example D152, N-[6-Chloro-2,4,8,18,22-pentaazatetracyclo[14.3.1.1(3,7).1(9,13)]docosa-1(20),3(22),4,6,9(21),10,12,16,18-nonaen-12-yl]-2-[1-(1,3-thiazol-2-yl)azetidin-3-yl]acetamide tris(trifluoroacetate)]
7 | 0.111 | 0.021 | > 0.4 | 0.09 |  |  |  |  | N#Cc1ccccc1S(=O)(=O)N1CCC(CCNc2ccc3cc2CCc2cncc(c2)Nc2ncc(Cl)c(n2)N3)CC1 [Example D222, 2-{[4-(2-{[6-Chloro-2,4,8,18,22-pentaazatetracyclo[14.3.1.1(3,7).1(9,13)]docosa-1(20),3(22),4,6,9(21),10,12,16,18-nonaen-12-yl]amino}ethyl)piperidin-1-yl]sulfonyl}benzonitrile tris(trifluoroacetate)]
8 | 0.0005 | 0.0076 | 0.0073 | 0.0052 |  |  |  |  | Clc1cnc2nc1Nc1cccc(c1)OCCc1cc(CN3CCOCC3)cc(c1)N2 [Example D189, 6-Chloro-19-(morpholin-4-ylmethyl)-14-oxa-2,4,8,23-tetraazatetracyclo[15.3.1.1(3,7).1(9,13)]tricosa-1(21),3(23),4,6,9(22),10,12,17,19-nonaene bis(trifluoroacetate)]
9 | 0.026 | 0.126 | 0.057 | 0.129 |  |  |  |  | Clc1cnc2nc1Nc1ccc(N3CCNCC3)c(c1)CCc1cccc(c1)N2 [Example D83, 6-Chloro-12-piperazin-1-yl-2,4,8,22-tetraazatetracyclo[14.3.1.1(3,7).1(9,13)]docosa-1(20),3(22),4,6,9(21),10,12,16,18-nonaene bis(trifluoroacetate)]
10 | 0.0009 | 0.024 | 0.003 | 0.0035 |  |  |  |  | CN1CCN(Cc2cc3cc(c2)Nc2ncc(Cl)c(n2)Nc2cccc(c2)OCC3)CC1 [Example D190, 6-Chloro-19-[(4-methylpiperazin-1-yl)methyl]-14-oxa-2,4,8,23-tetraazatetracyclo[15.3.1.1(3,7).1(9,13)]tricosa-1(21),3(23),4,6,9(22),10,12,17,19-nonaene tris(trifluoroacetate)]
11 | 0.058 | 0.014 | > 0.4 | > 0.4 |  |  |  |  | O=C(Nc1ccsc1)N1CCC(CCOc2ccc3cc2CCc2cncc(c2)Nc2ncc(Cl)c(n2)N3)CC1 [Example D166, 4-(2-{[6-Chloro-2,4,8,18,22-pentaazatetracyclo[14.3.1.1(3,7).1(9,13)]docosa-1(20),3(22),4,6,9(21),10,12,16,18-nonaen-12-yl]oxy}ethyl)-N-3-thienylpiperidine-1-carboxamide bis(trifluoroacetate)]
12 | 0.022 | 0.0061 | > 0.4 | 0.3 |  |  |  |  | O=C(COc1ccc2cc1CCc1cncc(c1)Nc1ncc(Cl)c(n1)N2)N1CCN(C(=O)Nc2ccccc2)CC1 [Example D264, 4-({[6-Chloro-2,4,8,18,22-pentaazatetracyclo[14.3.1.1(3,7).1(9,13)]docosa-1(20),3(22),4,6,9(21),10,12,16,18-nonaen-12-yl]oxy}acetyl)-N-phenylpiperazine-1-carboxamide bis(trifluoroacetate)]
13 | > 0.4 | 0.039 | > 0.4 | > 0.4 |  |  |  |  | O=C(CC1CCN(c2ccncc2)C1)Nc1ccc2cc1CCc1cncc(c1)Nc1ncc(Cl)c(n1)N2 (stereo not drawn) [Example D157, N-[6-Chloro-2,4,8,18,22-pentaazatetracyclo[14.3.1.1(3,7).1(9,13)]docosa-1(20),3(22),4,6,9(21),10,12,16,18-nonaen-12-yl]-2-(1-pyridin-4-ylpyrrolidin-3-yl)acetamide tris(trifluoroacetate)]
14 |  |  |  |  | > 0.2 | > 0.2 | > 0.2 | > 0.2 | Cc1cc(C(=O)N2CCC(CC(=O)Nc3ccc4cc3CCc3cccc(c3)Nc3ncc(F)c(n3)N4)CC2)no1 [Example C52, N-[6-Fluoro-2,4,8,22-tetraazatetracyclo[14.3.1.1(3,7).1(9,13)]docosa-1(20),3(22),4,6,9(21),10,12,16,18-nonaen-12-yl]-2-{1-[(5-methylisoxazol-3-yl)carbonyl]piperidin-4-yl}acetamide trifluoroacetate]
15 | 0.16 | 0.032 | > 0.4 | > 0.4 |  |  |  |  | O=C(COc1ccc2cc1CCc1cncc(c1)Nc1ncc(Cl)c(n1)N2)N1CCN(c2cnccn2)CC1 [Example D232, 6-Chloro-12-[2-oxo-2-(4-pyrazin-2-ylpiperazin-1-yl)ethoxy]-2,4,8,18,22-pentaazatetracyclo[14.3.1.1(3,7).1(9,13)]docosa-1(20),3(22),4,6,9(21),10,12,16,18-nonaene tris(trifluoroacetate)]
16 | 0.226 | 0.03 | > 0.4 | > 0.4 |  |  |  |  | Cc1ccc(N2CCN(C(=O)COc3ccc4cc3CCc3cncc(c3)Nc3ncc(Cl)c(n3)N4)CC2)nc1 [Example D246, 6-Chloro-12-{2-[4-(5-methylpyridin-2-yl)piperazin-1-yl]-2-oxoethoxy}-2,4,8,18,22-pentaazatetracyclo[14.3.1.1(3,7).1(9,13)]docosa-1(20),3(22),4,6,9(21),10,12,16,18-nonaene tris(trifluoroacetate)]
17 | > 0.4 | 0.064 | > 0.4 | > 0.4 |  |  |  |  | N#Cc1ccccc1N1CCN(C(=O)COc2ccc3cc2CCc2cncc(c2)Nc2ncc(Cl)c(n2)N3)CC1 [Example D235, 2-[4-({[6-Chloro-2,4,8,18,22-pentaazatetracyclo[14.3.1.1(3,7).1(9,13)]docosa-1(20),3(22),4,6,9(21),10,12,16,18-nonaen-12-yl]oxy}acetyl)piperazin-1-yl]benzonitrile tris(trifluoroacetate)]
18 | 0.159 | 0.046 | > 0.4 | > 0.4 |  |  |  |  | O=C(COc1ccc2cc1CCc1cncc(c1)Nc1ncc(Cl)c(n1)N2)N1CCN(c2ccc(F)cc2)CC1 [Example D242, 6-Chloro-12-{2-[4-(4-fluorophenyl)piperazin-1-yl]-2-oxoethoxy}-2,4,8,18,22-pentaazatetracyclo[14.3.1.1(3,7).1(9,13)]docosa-1(20),3(22),4,6,9(21),10,12,16,18-nonaene tris(trifluoroacetate)]
